From US20060276465A1, “1,2-di(cyclic) substituted benzene compounds” (Eisai R&D Management Co., Ltd., priority 2003, published 2006)
pIC50: −log10 of the molar value.

How the values were obtained:
[1] = test system: Balb/c mice; test: DSS-induced colitis model; assay type: in vivo; conditions: male Balb/c mice; 1-3% DSS for 5-7 days; 30 mg/kg orally once a day for 5-7 successive days
Excerpt: Evaluation of Compounds in DSS-Induced Colitis Model
A 1-3% solution of dextran sulfate sodium (hereinafter abbreviated as DSS; ICN) in purified water (Otsuka Pharmaceutical) was fed freely to 6- to 7-week-old male Balb/c mice (Charles River Japan) for 5-7 days to induce colitis. Disease Activity Index (hereinafter abbreviated as DAI) scored based on fecal hardness, blood content in feces and body weight change, the number of neutrophils infiltrating the colon and the length of the colon were used as indexes to evaluate compounds. Each compound was suspended or dissolved in an aqueous solution containing 0.5% methyl cellulose (Wako), and orally administered at 30 mg/kg once a day, for 5-7 successive days.

[2] = test system: human peripheral blood neutrophils; test: Human peripheral blood neutrophil adhesion system (adhesion to immobilized HUVEC, PMA-stimulated); assay type: cell-based; conditions: 0.75 h, concentration inhibiting by 50% the PMA-stimulated increase in the number of adhered BCECF-AM labeled neutrophils on HUVEC immobilized plate, 45 minutes, 37° C.
Procedure: Evaluation of Compounds in Human Peripheral Blood Neutrophil Adhesion System
<Preparation of Human Peripheral Blood Neutrophils>
To a plastic centrifugation tube containing 100 units of heparin sodium (Shimizu Pharmaceutical) was added 25 ml of fresh blood sampled from a healthy human. After adding and mixing therewith 8 ml of physiological saline (Otsuka Pharmaceutical) containing 6% Dextran (Nacalai), the mixture was allowed to stand at room temperature for 45 minutes for sedimentation of the erythrocytes. The resultant supernatant was transferred to another plastic centrifugation tube and combined with an equivalent volume of phosphate-buffered saline (hereinafter abbreviated as PBS; Sigma), and then centrifuged at 1600 rpm for 7 minutes at room temperature. The obtained hematocyte fraction was suspended in 4 ml of PBS, and the suspension was superposed on 4 ml of Ficoll-Paque™ PLUS (Amersham Biosciences). The resultant bilayer liquid was centrifuged at 2000 rpm for 30 minutes at room temperature, after which the supernatant was removed and the precipitate was suspended in 10 ml of PBS and centrifuged at 1200 rpm for 7 minutes, and the supernatant was removed. The resulting precipitate was suspended in 0.5 ml of PBS again, and then 10 ml of distilled water (Otsuka Pharmaceutical) was added, 0.5 ml of an aqueous solution containing 3 M NaCl was immediately added to restore isotonicity, the mixture was centrifuged at 1200 rpm for 7 minutes, and the obtained precipitate was suspended in PBS containing 1 mg/ml bovine serum albumin (hereinafter abbreviated as BSA; Sigma) again and stored in ice until being used for the experiment.
<Fluorescent Labeling of Human Peripheral Blood Neutrophils>
The obtained neutrophils were suspended in PBS containing 1 mg/ml BSA at 2×10^7 cells/ml. BCECF-AM (Dojin) was added to a final concentration of 5 μM, and the mixture was incubated at 37° C. for 45 minutes. It was then rinsed twice with PBS containing 1 mg/ml BSA by centrifugation, suspended again in PBS containing 1 mg/ml BSA at 5×10^7 cells/ml, and stored in ice until use.
<Preparation of HUVEC Immobilized Plate>
Human umbilical vein endothelial cells (hereinafter abbreviated as HUVEC) were suspended in MCDB131 medium (Chlorella Industries) containing 10% fetal calf serum and 30 μg/ml endothelial cell growth supplement (Becton Dickinson Bioscience). The suspension was added at 7.5×10^3 cells/well to a 96-well plate (Iwaki) immobilized with type I collagen, and cultured for 3 days in a CO2 incubator (Hirasawa). Upon confirming confluency of the cells, the supernatant was discarded, the plate was rinsed twice with PBS, and then PBS containing 0.1% glutaraldehyde (Kanto Kagaku) was added at 100 μl/well and the HUVECs were immobilized for 5 minutes. The supernatant was discarded and the plate was washed twice with PBS, and then PBS was added at 100 μl/well and the mixture was stored at 4° C. until use.
To 6.5 ml of RPMI-1640 medium (Sigma) containing 1 mg/ml of BSA were added 0.5 ml of a suspension of BCECF-AM labeled neutrophils at 5×10^7/ml stored in ice, which was mixed, and the mixture was added at 80 μl/well to a HUVEC immobilized plate. To this plate were immediately added 10 μl/well of a solution of the compound diluted at different concentrations with RPMI-1640 containing 1 mg/ml BSA, and 10 μl/well of 100 nM phorbol myristate acetate (hereinafter abbreviated as PMA; Sigma) in RPMI-1640 containing 1 mg/ml BSA, and the mixture was incubated in a CO2 incubator at 37° C. for 45 minutes. The supernatant was removed from the plate, which was then washed several times with RPMI-1640 at 100 μl/well, and then PBS containing 0.1% NP-40 (Calbiochem) was added thereto at 100 μl/well and the fluorescent intensity was measured with and ARVO™SX 1420 multi label counter (Wallac) to determine the number of adhered cells. […]

pIC50 [2]: 4.94
Compound: COCCN1CCN(c2ccccc2C2CCC(C(C)(C)C)CC2)CC1.Cl (centres unmarked) [Example 19, 1-[2-(4-t-Butylcyclohexyl)phenyl]-4-(2-methoxyethyl)piperazine hydrochloride]
improvement in comparison with the DSS control group (DAI, number of neutrophils infiltrating the colon, length of the colon) [1]: particularly good improvement
